Measurements as given in patent US11129840B2, “Methods for identifying novel dosing regimens” (Zavante Therapeutics, Inc., priority 2017, dated 2021).
In brackets after ≈: the same amount, converted by molar mass.

Experiments:
Assay type in all cases: cell-based
[1] = tested on: ESBL-containing K. pneumoniae; test: Reference agar dilution MIC, ZEUS baseline isolates; conditions: Klebsiella pneumoniae
Protocol: (§1) FOS was tested against 465 GN baseline clinical isolates collected in the cUTI clinical trial. Isolates were susceptibility (S) tested against comparator agents by reference broth microdilution and FOS by reference agar dilution (25 μg/mL glucose-6-phosphate supplementation). Existing FDA FOS breakpoints of ≤64 mg/L for the oral formulation were used for comparative assessments. Screen-positive ESBL Enterobacteriaceae isolates were characterized by whole genome sequencing and analysis for the presence of known β-lactamase genes.

Pseudomonas aeruginosa = test: as above
Protocol: as §1

Proteus mirabilis [2] = test: as above; conditions: 20 isolates
Protocol: as §1

E. coli = test: as above; conditions: 329 E. coli
Protocol: as §1

Enterobacteriaceae [3] = test: as above
Protocol: as §1

[4] = tested on: ESBL-containing P. mirabilis; test: as above; conditions: Proteus mirabilis; 3 isolates
Protocol: as §1

[5] = tested on: Enterobacter cloacae complex; test: as above
Protocol: as §1

Klebsiella pneumoniae = test: as above
Protocol: as §1

ESBL-containing E. coli = test: as above; conditions: Escherichia coli; 49 isolates
Protocol: as §1

[6] = tested on: K. pneumoniae isolates with carbapenemase genes NDM-1 and OXA-48; test: as above; conditions: Klebsiella pneumoniae
Protocol: as §1

Proteus mirabilis [7] = test: Reference agar dilution MIC, SENTRY US isolates; conditions: randomly selected
Protocol: (§2) FOS was tested against over 1,400 GN and 800 GP clinical isolates collected in US medical centers as part of the SENTRY Antimicrobial Surveillance Program (96% of isolates from 2015) and a selection of 29 GN and 20 GP anaerobes. Isolates were susceptibility (S) tested against FOS and comparators by reference agar dilution (25 μg/mL glucose-6-phosphate supplementation) using existing FDA breakpoints of the oral formulation for comparative assessments.

[8] = tested on: coagulase-negative staphylococci (CoNS) excluding S. saprophyticus; test: Reference agar dilution MIC, SENTRY US isolates
Protocol: as §2

Enterobacteriaceae [9] = test: Reference agar dilution MIC, SENTRY US isolates; conditions: selected Enterobacteriaceae
Protocol: as §2

E. faecalis = test: Reference agar dilution MIC, SENTRY US isolates; conditions: FDA oral breakpoints
Protocol: as §2

Citrobacter koseri = test: Reference agar dilution MIC, SENTRY US isolates; conditions: randomly selected
Protocol: as §2

C. freundii complex = test: Reference agar dilution MIC, SENTRY US isolates; conditions: Citrobacter freundii; randomly selected
Protocol: as §2

Enterobacter aerogenes = test: Reference agar dilution MIC, SENTRY US isolates; conditions: Klebsiella aerogenes; randomly selected
Protocol: as §2

S. pyogenes = test: Reference agar dilution MIC, SENTRY US isolates; conditions: Streptococcus pyogenes
Protocol: as §2

**Q.** Which MIC90 [1] does the source give for `C[C@@H]1O[C@@H]1P(=O)(O)O` [FOS, fosfomycin] here?
**A.** 128 µg/mL (≈ 927 µM)

**Q.** What about the MIC50 ([1]; 28 isolates) of the same molecule?
**A.** 16 µg/mL (≈ 116 µM)

**Q.** What about the MIC90 (Pseudomonas aeruginosa) of the same molecule?
**A.** 256 µg/mL (≈ 1850 µM)

**Q.** And the MIC50 (Pseudomonas aeruginosa; 21 isolates)?
**A.** 64 µg/mL (≈ 464 µM)

**Q.** What about the MIC50 (Proteus mirabilis [2]) of the same molecule?
**A.** 2 µg/mL (≈ 14.5 µM)

**Q.** And the MIC90 (Proteus mirabilis [2])?
**A.** 32 µg/mL (≈ 232 µM)

**Q.** What about the “% S to FOS” value (E. coli) of the same molecule?
**A.** 100.0%

**Q.** What about the “% of isolates ≤64 mg/L” value (Enterobacteriaceae [3]) of the same molecule?
**A.** 96.4%

**Q.** And the MIC50 (Enterobacteriaceae [3])?
**A.** 1 µg/mL (≈ 7.24 µM)

**Q.** What about the MIC90 (Enterobacteriaceae [3]) of the same molecule?
**A.** 16 µg/mL (≈ 116 µM)

**Q.** And the MIC50 [4]?
**A.** 2 µg/mL (≈ 14.5 µM)

**Q.** And the MIC90 [5]?
**A.** 128 µg/mL (≈ 927 µM)

**Q.** What about the MIC50 ([5]; 14 isolates) of the same molecule?
**A.** 16 µg/mL (≈ 116 µM)

**Q.** What about the “% of isolates <64 mg/L” value (Klebsiella pneumoniae; 62 isolates) of the same molecule?
**A.** 87.1%

**Q.** What about the MIC90 (Klebsiella pneumoniae; Klebsiella pneumoniae) of the same molecule?
**A.** 128 µg/mL (≈ 927 µM)

**Q.** What about the MIC50 (Klebsiella pneumoniae; Klebsiella pneumoniae, 62 isolates) of the same molecule?
**A.** 16 µg/mL (≈ 116 µM)

**Q.** What about the MIC50 (ESBL-containing E. coli) of the same molecule?
**A.** 1 µg/mL (≈ 7.24 µM)

**Q.** And the MIC90 (ESBL-containing E. coli)?
**A.** 2 µg/mL (≈ 14.5 µM)

**Q.** What about the MIC ([6]; NDM-1 isolate) of the same molecule?
**A.** 8 µg/mL (≈ 57.9 µM)

**Q.** And the MIC ([6]; OXA-48 isolate)?
**A.** 64 µg/mL (≈ 464 µM)

**Q.** What about the MIC50 (Proteus mirabilis [7]) of the same molecule?
**A.** 1 µg/mL (≈ 7.24 µM)

**Q.** And the MIC90 (Proteus mirabilis [7])?
**A.** 8 µg/mL (≈ 57.9 µM)

**Q.** And the MIC50 [8]?
**A.** 8 µg/mL (≈ 57.9 µM)

**Q.** What about the MIC90 ([8]; Staphylococcus saprophyticus) of the same molecule?
**A.** 64 µg/mL (≈ 464 µM)

**Q.** And the MIC50 (Enterobacteriaceae [9])?
**A.** 4 µg/mL (≈ 29 µM)

**Q.** What about the “% S” value (E. faecalis) of the same molecule?
**A.** 99.0%

**Q.** And the “% intermediate” value (E. faecalis)?
**A.** 1.0%

**Q.** What about the MIC50 (Citrobacter koseri) of the same molecule?
**A.** 1 µg/mL (≈ 7.24 µM)

**Q.** What about the MIC90 (Citrobacter koseri) of the same molecule?
**A.** 1 µg/mL (≈ 7.24 µM)

**Q.** What about the MIC50 (C. freundii complex) of the same molecule?
**A.** 0.5 µg/mL (≈ 3.62 µM)

**Q.** What about the MIC90 (C. freundii complex) of the same molecule?
**A.** 1 µg/mL (≈ 7.24 µM)

**Q.** And the MIC50 (Enterobacter aerogenes)?
**A.** 8 µg/mL (≈ 57.9 µM)

**Q.** What about the MIC90 (Enterobacter aerogenes) of the same molecule?
**A.** 16 µg/mL (≈ 116 µM)

**Q.** What about the MIC50 (S. pyogenes) of the same molecule?
**A.** 32 µg/mL (≈ 232 µM)

**Q.** What about the MIC90 (S. pyogenes) of the same molecule?
**A.** 64 µg/mL (≈ 464 µM)
